Experimental data as given in publication PMC5947694, “Structure of the mouse acidic amino acid decarboxylase GADL1” (Acta Crystallographica. Section F, Structural Biology …, 2018).

T1: MmGADL1 (mouse glutamic acid decarboxylase-like protein 1) (Mus musculus, UniProt Q80WP8)
T1 construct: gene Gadl1; residues 1-502, N-terminal His6 tag and TEV site kept; expressed in E. coli; homodimer; residues 11-502 built, loop about 340-350 disordered
T1 sequence (Q80WP8 49-526 isoform Q80WP8-2): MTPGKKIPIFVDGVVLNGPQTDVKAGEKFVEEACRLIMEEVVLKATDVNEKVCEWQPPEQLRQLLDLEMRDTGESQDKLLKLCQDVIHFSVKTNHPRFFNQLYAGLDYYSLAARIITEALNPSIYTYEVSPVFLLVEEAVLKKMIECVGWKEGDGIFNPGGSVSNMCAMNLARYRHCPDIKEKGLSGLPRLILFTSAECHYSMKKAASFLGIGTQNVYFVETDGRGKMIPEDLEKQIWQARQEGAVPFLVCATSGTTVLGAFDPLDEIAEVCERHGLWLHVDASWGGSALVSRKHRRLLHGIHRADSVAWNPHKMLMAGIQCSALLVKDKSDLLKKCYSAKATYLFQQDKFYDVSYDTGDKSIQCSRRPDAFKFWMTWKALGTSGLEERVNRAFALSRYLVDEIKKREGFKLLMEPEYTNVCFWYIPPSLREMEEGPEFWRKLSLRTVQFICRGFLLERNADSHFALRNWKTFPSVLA


Legend:
[1] = target: T1, MmGADL1 (mouse glutamic acid decarboxylase-like protein 1); experiment: X-ray crystallography, […] Å (crystal form […]); assay type: binding; settings: covalent; Schiff base (internal aldimine) with Lys314; active site at dimer interface, both sites occupied
[2] = target: the molecule itself; experiment: SAXS; 1.6-6.5 mg/ml in 20 mM HEPES pH 7.4, 200 mM NaCl, 293 K; molecular mass from forward scattering I(0) against a monomeric BSA standard

Molecule | X-ray crystallography, 3.0 Å (crystal form 1) [1] | stoichiometry N [2]
Cc1ncc(COP(=O)(O)O)c(C=O)c1O [PLP] | Both active sites in the dimer are occupied by the PLP cofactor, which is covalently bound | –
mouse glutamic acid decarboxylase-like protein 1 (MmGADL1), His6-tagged, residues 1-502 (enzyme, PLP covalently bound to the N-epsilon atom of Lys314 through a Schiff base linkage (seen in the crystal)) MGPHHHHHHLESTSLYKKAGSENLYFQGMTPGKKIPIFVDGVVLNGPQTDVKAGEKFVEEACRLIMEEVVLKATDVNEKVCEWQPPEQLRQLLDLEMRDTGESQDKLLKLCQDVIHFSVKTNHPRFFNQLYAGLDYYSLAARIITEALNPSIYTYEVSPVFLLVEEAVLKKMIECVGWKEGDGIFNPGGSVSNMCAMNLARYRHCPDIKEKGLSGLPRLILFTSAECHYSMKKAASFLGIGTQNVYFVETDGRGKMIPEDLEKQIWQARQEGAVPFLVCATSGTTVLGAFDPLDEIAEVCERHGLWLHVDASWGGSALVSRKHRRLLHGIHRADSVAWNPHKMLMAGIQCSALLVKDKSDLLKKCYSAKATYLFQQDKFYDVSYDTGDKSIQCSRRPDAFKFWMTWKALGTSGLEERVNRAFALSRYLVDEIKKREGFKLLMEPEYTNVCFWYIPPSLREMEEGPEFWRKLSLVAPAIKEKMMKKGSLMLGYQPHRGKVNFFRQVVISPQVSREDMDFLLDEIDSLGRDM | – | 2 ratio to theoretical monomer
